The text below walks through data of patent publication US20130040978A1 (priority 2010, published 2013).

Structures are written as SMILES. Where a name gives a salt, the structure may show the parent alone.

SSTR5, sequence (P35346 whole entry): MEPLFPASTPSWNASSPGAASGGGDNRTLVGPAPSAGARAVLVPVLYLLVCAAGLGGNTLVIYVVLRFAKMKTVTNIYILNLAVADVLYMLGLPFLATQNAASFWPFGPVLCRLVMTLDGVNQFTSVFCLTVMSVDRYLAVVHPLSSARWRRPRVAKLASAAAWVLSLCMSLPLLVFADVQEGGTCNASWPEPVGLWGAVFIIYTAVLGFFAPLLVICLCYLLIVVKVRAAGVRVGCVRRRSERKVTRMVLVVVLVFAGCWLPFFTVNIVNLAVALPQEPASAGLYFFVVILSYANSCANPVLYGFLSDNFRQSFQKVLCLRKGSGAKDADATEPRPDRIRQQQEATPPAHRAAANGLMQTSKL

This assay concerns the target SSTR5 (Homo sapiens, UniProt P35346). The assay can be described thus: Functional assay of inhibition of SSTR5 mediated cyclic AMP production in SSTR5 expressing CHO cells. It counts as cell-based, human. Conditions: forskolin (FSK) plus SS-28, read-out: cAMP IC50.
Take `CC(C)n1cc(CN2CCC3(CC2)CC(c2ccc(C(=O)O)cc2)=NO3)c2c(-c3ccc(F)cc3)cccc21` [Example 39, 4-(8-{[4-(4-Fluorophenyl)-1-(propan-2-yl)-1H-indol-3-yl]methyl}-1-oxa-2,8-diazaspiro[4.5]dec-2-en-3-yl)benzoic acid, TFA salt]: the IC50 is 0.18 nM.

On to `CC(C)n1cc(CN2CCC3(CC2)CC(c2ccc(C(=O)O)cc2)=NO3)c2c(-c3ccc(F)nc3)cccc21` [Example 40, 4-(8-{[4-(6-Fluoropyridin-3-yl)-1-(propan-2-yl)-1H-indol-3-yl]methyl}-1-oxa-2,8-diazaspiro[4.5]dec-2-en-3-yl)benzoic acid, TFA salt], for which the IC50 is 0.4 nM.

As to `CC(C)n1cc(CN2CCC3(CC2)CC(c2ccc(C(=O)O)cc2)=NO3)c2c(-c3cc(F)c(F)cc3F)cccc21` [Example 41, 4-(8-{[4-(2,4,5-Trifluorophenyl)-1-(propan-2-yl)-1H-indol-3-yl]methyl}-1-oxa-2,8-diazaspiro[4.5]dec-2-en-3-yl)benzoic acid, TFA salt], the IC50 was found to be 0.3 nM. In the case of `CC(C)n1cc(CN2CCC3(CC2)CC(c2ccc(C(=O)O)cc2)=NO3)c2c(-c3ccc(F)cc3)ccnc21` [Example 43, 4-(8-{[4-(4-Fluorophenyl)-1-(propan-2-yl)-1H-pyrrolo[2,3-b]pyridin-3-yl]methyl}-1-oxa-2,8-diazaspiro[4.5]dec-2-en-3-yl)benzoic acid, TFA salt] it was 2.5 nM; in that of `Cc1cccc2c(CN3CCC4(CC3)CC(c3ccc(C(=O)O)cc3)=NO4)cn(C(C)C)c12` [Example 44, 4-(8-{[7-Methyl-1-(propan-2-yl)-1H-indol-3-yl]methyl}-1-oxa-2,8-diazaspiro[4.5]dec-2-en-3-yl)benzoic acid, TFA salt], 14.4 nM; in that of `Cc1cccc2c(CN3CCC4(CC3)CC(c3ccc(C(=O)O)cc3)=NO4)cn(C3CC3)c12` [Example 45, 4-(8-{[7-Methyl-1-(cyclopropyl)-1H-indol-3-yl]methyl}-1-oxa-2,8-diazaspiro[4.5]dec-2-en-3-yl)benzoic acid, TFA salt], 9.15 nM.

For `CC(C)n1cc(CN2CCC3(CC2)CC(c2ccc(C(=O)O)cc2)=NO3)c2c(F)c(F)c(F)c(F)c21` [Example 46, 4-(8-{[1-(propan-2-yl)-4,5,6,7-(tetrafluoro)-1H-indol-3-yl]methyl}-1-oxa-2,8-diazaspiro[4.5]dec-2-en-3-yl)benzoic acid, TFA salt], the IC50 stood at 12.1 nM. For `CC(C)n1cc(CN2CCC3(CC2)CC(c2ccc(C(=O)O)cc2)=NO3)c2c(C3CC3)cccc21` [Example 47, 4-(8-{[4-(Cyclopropyl)-1-(propan-2-yl)-1H-indol-3-yl]methyl}-1-oxa-2,8-diazaspiro[4.5]dec-2-en-3-yl)benzoic acid, TFA salt] the value was 0.28 nM; for `CC(C)n1cc(CN2CCC3(CC2)CC(c2ccc(C(=O)O)cc2)=NO3)c2cccc(C3CC3)c21` [Example 48, 4-(8-{[7-(Cyclopropyl)-1-(propan-2-yl)-1H-indol-3-yl]methyl}-1-oxa-2,8-diazaspiro[4.5]dec-2-en-3-yl)benzoic acid, TFA salt], 3.36 nM. For `O=C(O)c1ccc(C2=NOC3(CCN(Cc4cn(C5CC5)c5ccc(C6CC6)cc45)CC3)C2)cc1` [Example 49, 4-(8-{[1,5-(Dicyclopropyl)-1H-indol-3-yl]methyl}-1-oxa-2,8-diazaspiro[4.5]dec-2-en-3-yl)benzoic acid, TFA salt] the value was 2.5 nM; for `O=C(O)c1ccc(C2=NOC3(CCN(Cc4cn(C5CC5)c5c(C6CC6)cccc45)CC3)C2)cc1` [Example 50, 4-(8-{[1,7-(Dicyclopropyl)-1H-indol-3-yl]methyl}-1-oxa-2,8-diazaspiro[4.5]dec-2-en-3-yl)benzoic acid, TFA salt], 13.5 nM; for `CC(C)n1cc(CN2CCC3(CC2)CC(c2ccc(C(=O)O)cc2)=NO3)c2cc(F)ccc21` [Example 51, 4-(8-{[5-Fluoro-1-(propan-2-yl)-1H-indol-3-yl]methyl}-1-oxa-2,8-diazaspiro[4.5]dec-2-en-3-yl)benzoic acid, TFA salt], 8.32 nM. `Cc1cc(-c2cccnc2)c(CN2CCC3(CC2)CC(c2ccc(C(=O)O)cc2)=NO3)cc1C(F)(F)F` [Example 68]: the half-maximal inhibitory concentration (IC50) turned out to be 13.2 nM. In the case of `O=C(O)c1ccc(C2=NOC3(CCN(Cc4ccc(Cl)c(Br)c4)CC3)C2)cc1` [Example 70, 4-[8-(3-Bromo-4-chlorobenzyl)-1-oxa-2,8-diazaspiro[4.5]dec-2-en-3-yl]benzoic acid] it was 26.5 nM; in that of `O=C(O)c1ccc(C2=NOC3(CCN(Cc4cc(Cl)cc(C5CC5)c4)CC3)C2)cc1` [Example 85, 4-[8-(3-Chloro-5-cyclopropylbenzyl)-1-oxa-2,8-diazaspiro[4.5]dec-2-en-3-yl]benzoic acid, TFA salt], 2.25 nM.

As for `CC1(C)CCOc2c(Cl)cc(CN3CCC4(CC3)CC(c3ccc(C(=O)O)cc3)=NO4)cc21` [Example 87, 4-{8-[(8-Chloro-4,4-dimethyl-3,4-dihydro-2H-chromen-6-yl)methyl]-1-oxa-2,8-diazaspiro[4.5]dec-2-en-3-yl}benzoic acid trifluoroacetate], the IC50 turned out to be 1.5 nM.

Take `Cc1cc(CN2CCC3(CC2)CC(c2ccc(C(=O)O)cc2)=NO3)cc2c1OC(C)(C)CC2` [Example 91, 4-{8-[(2,2,8-Trimethyl-3,4-dihydro-2H-chromen-6-yl)methyl]-1-oxa-2,8-diazaspiro[4.5]dec-2-en-3-yl}benzoic acid, TFA salt]: the IC50 came out at 72.7 nM. For `CC1(C)CC2(CC2)c2cc(CN3CCC4(CC3)CC(c3ccc(C(=O)O)cc3)=NO4)ccc2O1` [Example 95, 4-{8-[(2,2-Dimethyl-2,3-dihydrospiro[chromene-4,1′-cyclopropan]-6-yl)methyl]-1-oxa-2,8-diazaspiro[4.5]dec-2-en-3-yl}benzoic acid, TFA salt] the value was 18.7 nM; for `CC1(C)CC2(CC2)c2cc(CN3CCC4(CC3)CC(c3ccc(C(=O)O)cc3)=NO4)cc(Cl)c2O1` [Example 96, 4-{8-[(8-Chloro-2,2-dimethyl-2,3-dihydrospiro[chromene-4,1′-cyclopropan]-6-yl)methyl]-1-oxa-2,8-diazaspiro[4.5]dec-2-en-3-yl}benzoic acid, TFA salt], 9.4 nM. Take `CC1(C)CC2(CC2)c2cc(CN3CCC4(CC3)CC(c3ccc(C(=O)O)cc3)=NO4)cc(C3CC3)c2O1` [Example 97, 4-{8-[(8-Cyclopropyl-2,2-dimethyl-2,3-dihydrospiro[chromene-4,1′-cyclopropan]-6-yl)methyl]-1-oxa-2,8-diazaspiro[4.5]dec-2-en-3-yl}benzoic acid, TFA salt]: the IC50 is 4.05 nM. For `CC1(C)CCSc2c(C3CC3)cc(CN3CCC4(CC3)CC(c3ccc(C(=O)O)cc3)=NO4)cc21` [Example 98, 4-{8-[(8-Cyclopropyl-4,4-dimethyl-3,4-dihydro-2H-thiochromen-6-yl)methyl]-1-oxa-2,8-diazaspiro[4.5]dec-2-en-3-yl}benzoic acid, TFA salt] the value was 12.6 nM; for `CC1(C)CCS(=O)(=O)c2c(Cl)cc(CN3CCC4(CC3)CC(c3ccc(C(=O)O)cc3)=NO4)cc21` [Example 99, 4-{8-[(8-Chloro-4,4-dimethyl-1,1-dioxido-3,4-dihydro-2H-thiochromen-6-yl)methyl]-1-oxa-2,8-diazaspiro[4.5]dec-2-en-3-yl}benzoic acid, TFA salt], 472 nM.
